The source of these data is US10220021B2, “Methods for treating and preventing ocular diseases, disorders, and conditions with melanin and melanin analogs, precursors, and derivatives” (priority 2014, dated 2019).

Like-named read-outs stand apart in the source and are kept apart here.

For data set [1], the system named is cornea of the right eye of a Wistar rat. To be noted: cited from earlier work; for Observation in Treated Eye: Angiogenesis / Observation in Treated Eye: Corneal Keratoconus / Observation in Treated Eye: No Change: 10 μL topically once, 5 rats treated, one week.
Data set [2] has as its system leukoplakia and hyperemia of the eye. Kind of data set: Topical treatment of leukoplakia and hyperemia of the eye in a patient. It is filed as in vivo, human. The conditions noted are these: topical cortisone drops, two months, right eye. An excerpt:
The leukoplakia was hypothesized to be the result of excessive sun exposure and chemicals. The patient was initially treated with topical cortisone drops, and the cortisone treatment continued for two months.
One month subsequent to stopping cortisone treatment, the patient underwent treatment with a 3% aqueous solution of melanin (w/v) that was topically applied in the form of eye drops. The aqueous solution was produced by mixing water and chemically synthesized melanin (synthetic melanin). […] Three to four drops (about 50 μL per drop) of the 3% aqueous melanin solution were administered for each application, and the solution was applied four times per day at approximately six hour intervals. […] The same dosing regimen was used over the entire course of the treatment.

The next data set concerns hyphema in rabbits. To be noted: rabbit, in vivo; cited from earlier work.
Another data set deals with eyes of healthy rats. The conditions noted are these: rat, in vivo.

Protocol for eyes of healthy rats: The effect of subconjunctival injection of melanin into the eyes of healthy rats was tested. Rats were put under general anesthesia by intraperitoneal injection of barbiturates. A total of five rats were used in the study. Then, 500 μL of a 3% aqueous melanin solution was administered to the right eye of each of the rats by subconjunctival injection. The left eye was left untreated.

As for `Oc1ccccc1` [Phenol, phenol], the “formation of new blood vessels in the cornea” value in data set [1] (all concentrations of phenol tested (0.1 M to 8.5 M), at least one rat in each group, one week after application) is “new blood vessels began to form in the cornea”. In data set [1] (higher concentrations of phenol (e.g., 3.0 M, 5.6 M, and 8.5 M)), the “changes associated with corneal ectasia, particularly corneal keratoconus” value is on record as “observed in some of the rats”. The “Observation in Treated Eye: Angiogenesis” value in data set [1] (phenol 0.1M) is 1 Number of Rats; in data set [1] (phenol 0.5M), 1 Number of Rats; in data set [1] (phenol 1.0M), 3 Number of Rats; in data set [1] (phenol 3.0M) it was 4 Number of Rats; in data set [1] (phenol 6.5M), 4 Number of Rats; in data set [1] (phenol 8.5M), 3 Number of Rats. Also, the “Observation in Treated Eye: Corneal Keratoconus” value in data set [1] (phenol 0.1M) is recorded as 0 Number of Rats; in data set [1] (phenol 0.5M) it was 0 Number of Rats; in data set [1] (phenol 1.0M) it was 0 Number of Rats; in data set [1] (phenol 3.0M), 2 Number of Rats; in data set [1] (phenol 6.5M), 2 Number of Rats; in data set [1] (phenol 8.5M) it was 1 Number of Rats. Further, the “Observation in Treated Eye: No Change” value in data set [1] (phenol 0.1M) was 4 Number of Rats; in data set [1] (phenol 0.5M), 4 Number of Rats; in data set [1] (phenol 1.0M) it was 2 Number of Rats; in data set [1] (phenol 3.0M), 1 Number of Rats; in data set [1] (phenol 6.5M) it was 1 Number of Rats; in data set [1] (phenol 8.5M), 2 Number of Rats.
Turning to `C[C@]12CCC(=O)C=C1CC[C@@H]1[C@@H]2C(=O)C[C@@]2(C)[C@H]1CC[C@]2(O)C(=O)CO` [cortisone], in data set [2], the “improvement of leukoplakia and hyperemia” value was “no improvement”.
Consider melanin, for which the incidence of rebleeds result with hyphema in rabbits is “increase”. Further, in the data set with eyes of healthy rats, the “appearance of treated eyes immediately after injection” value was “increase in size and some distortion”; the “visible marks on the ocular tissue at the injection site” value is reported as “no visible marks”; the “visible signs of inflammation, irritation, or subconjunctival bleeding” value was “nor were any visible signs of inflammation, irritation, or subconjunctival bleeding observed”.
